Counter-ions that a name gives are not always drawn.

Here are results for seven molecules from patent US20230109801A1 (Blue Oak Pharmaceuticals, Inc., priority 2020, published 2023).

The assay concerns mice. Briefly: SmartCube in vivo neuropharmacological behavioral assay. The following applies: for minimal effective dose: Mus musculus, ip, dose having 50% or more total activity in SmartCube, i.p., read-out: MED (minimal effective dose); for AD: antidepressant, percent probability / AG: analgesic, percent probability / AP: antipsychotic, percent probability / AX: anxiolytic, percent probability / CE: cognitive enhancer, percent probability / HA: hallucinogenic, percent probability / MS: mood stabilizer, percent probability / PS, percent probability / SD: sedative hypnotic, percent probability / SE: side effects, percent probability / UN: uncharacterized CNS activity, percent probability / XG: anxiogenic, percent probability: SmartCube, i.p. 15 min before test, at the MED. The procedure: The compounds were evaluated for their CNS related properties (e.g., the treatment, prevention or diagnosis of CNS or CNS-related disorders and/or amelioration of symptoms) using neuropharmacological screening methods described in S. L. Roberts et al., Front. Neurosci. 2011, 5:103 (hereinafter referred to as “Roberts,” the contents of which are incorporated herein by reference in their entirety).
According to Roberts, intact systems are useful in detecting improvement in disease-relevant endpoints, because psychiatric diseases generally result from disorders of cell-cell communication or circuitry. The endpoints are typically behavioral in nature, often requiring human observation and interpretation. In order to test multiple compounds for behavioral effects relevant to neurological and psychiatric diseases and disorders, PsychoGenics, Inc. (Paramus, N.J. “PGI”) developed SmartCube®, an automated system in which behaviors of compound-treated mice are captured by digital video and analyzed with computer algorithms to facilitate testing of multiple compounds for behavioral effects relevant to psychiatric disease. (D. Brunner et al., Drug Discov. Today 2002, 7:S107-S112; Alexandrov et al., Eur. J. Pharmacol. 2015, 753:127-134; the contents of each of which are incorporated herein by reference in their entirety).
The SmartCube® system is described in Example 2.2 of U.S. Pat. No. 9,758,529 and Example 289 of WIPO Publication No. WO2018/023070, the contents of each of which are incorporated herein by reference in their entirety.
According to the present disclosure, compounds identified may be evaluated using the SmartCube® system. The results of such analysis correlate certain patterns or combinations of behaviors to CNS effects along a percent probability scale of 0-100 where zero (O) reflects the limit of quantitation (LOQ).
The compounds of the present disclosure were evaluated for their CNS related properties (e.g., the treatment, prevention or diagnosis of CNS or CNS-related disorders and/or amelioration of symptoms) using neuropharmacological screening methods described in S. L. Roberts et al., Front. Neurosci. 2011, 5:103 (hereinafter referred to as “Roberts,” the contents of which are incorporated herein by reference in their entirety).
The SmartCube® system described herein was utilized to compare the behavioral signature of a test compound to a database of behavioral signatures obtained using a large set of diverse reference compounds (including but not limited to antipsychotics, anxiolytics, antidepressants and bipolar disorder medicine), thereby predicting the neuropharmacological effects of a test compound by similarity to major classes of compounds. It produces an activity signature indicating the probability that the activity of the test compound at the administered dose matches a given class of neuropharmacological agents. The test compound is simultaneously compared against multiple classes of agents; thus, a separate probability is generated for each behavioral effect measured (such as but not limited to anxiolytic activity and analgesic activity).
The compounds of the present disclosure were dissolved in a mixture of Pharmasolve™ (N-methyl-2-pyrrolidone (NMP)) and were injected i.p. 15 min. before the behavioral test. For each compound, injections were administered at different dose levels (e.g., 0.3, 1, 3, 10 and 30 mg per kg (mpk)). A compound's minimal effective dose (MED; see Table 3) is a measure of the compound's potency. The MED was defined as the dose (in mpk) having 50% or more total activity in SmartCube®. For each behavioral effect measured, results at the MED are presented. CNS activities of the compounds were recorded (see Table 2). In Table 1, a key to the percent probabilities (probability×100) for each behavioral effect (“X”) are defined provided, where LOQ is the limit of quantification.

As a reminder, the minimal effective dose is the lowest level tested that produced the effect sought. Consider `CC(C)N1C2C=CC1c1ccccc12` [Compound 53, 11-(Propan-2-yl)-11-azatricyclo[6.2.1.0^2,7]undeca-2,4,6,9-tetraene hydrochloride], for which the minimal effective dose is 10 to 30 mg/kg; the “AD: antidepressant, percent probability” value is given as “++ (5% ≤ X < 25%)”; the “AG: analgesic, percent probability” value is “++ (5% ≤ X < 25%)”; the “AP: antipsychotic, percent probability” value was “+ (LOQ ≤ X < 5%)”. For the same molecule, the “AX: anxiolytic, percent probability” value is recorded as “++ (5% ≤ X < 25%)”; the “CE: cognitive enhancer, percent probability” value is recorded as “+ (LOQ ≤ X < 5%)”; the “HA: hallucinogenic, percent probability” value is given as “+ (LOQ ≤ X < 5%)”; the “MS: mood stabilizer, percent probability” value is reported as “+ (LOQ ≤ X < 5%)”. The “PS, percent probability” value was “++ (5% ≤ X < 25%)”; the “SD: sedative hypnotic, percent probability” value (“SD … percent probability” for short) is reported as “+ (LOQ ≤ X < 5%)”; the “SE: side effects, percent probability” value is reported as “+ (LOQ ≤ X < 5%)”; the “UN: uncharacterized CNS activity, percent probability” value (“UN … percent probability” for short) was “++ (5% ≤ X < 25%)”. In addition, the “XG: anxiogenic, percent probability” value is listed as “+ (LOQ ≤ X < 5%)”.
For the molecule `c1ccc2c(c1)C1CCC2N1` [Compound 41, hydrochloride], the minimal effective dose was in the range of 10 to 30 mg/kg; the “AD: antidepressant, percent probability” value is on record as “+ (LOQ ≤ X < 5%)”; the “AG: analgesic, percent probability” value is “++ (5% ≤ X < 25%)”; the “AP: antipsychotic, percent probability” value is on record as “+ (LOQ ≤ X < 5%)”. The “AX: anxiolytic, percent probability” value is listed as “++ (5% ≤ X < 25%)”; the “CE: cognitive enhancer, percent probability” value is on record as “++ (5% ≤ X < 25%)”; the “HA: hallucinogenic, percent probability” value was “+ (LOQ ≤ X < 5%)”; the “MS: mood stabilizer, percent probability” value is recorded as “+ (LOQ ≤ X < 5%)”. The “PS, percent probability” value is “+ (LOQ ≤ X < 5%)”; the “SD … percent probability” value is recorded as “+ (LOQ ≤ X < 5%)”; the “SE: side effects, percent probability” value is “+ (LOQ ≤ X < 5%)”; the “UN … percent probability” value is listed as “++ (5% ≤ X < 25%)”. For the same molecule, the “XG: anxiogenic, percent probability” value is “+ (LOQ ≤ X < 5%)”.
On to `CC(C)N1C2C=CC1c1c(Cl)cccc12` (stereo not shown) [Compound 12, 3-Chloro-11-(propan-2-yl)-11-azatricyclo[6.2.1.0^2,7]undeca-2,4,6,9-tetraene hydrochloride], for which the minimal effective dose was above 30 mg/kg; the “AD: antidepressant, percent probability” value was “+ (LOQ ≤ X < 5%)”; the “AG: analgesic, percent probability” value is given as “+ (LOQ ≤ X < 5%)”; the “AP: antipsychotic, percent probability” value is “+ (LOQ ≤ X < 5%)”. Besides, the “AX: anxiolytic, percent probability” value is “+++ (25% ≤ X < 50%)”; the “CE: cognitive enhancer, percent probability” value is listed as “+ (LOQ ≤ X < 5%)”; the “HA: hallucinogenic, percent probability” value is listed as “+ (LOQ ≤ X < 5%)”; the “MS: mood stabilizer, percent probability” value was “+ (LOQ ≤ X < 5%)”. The “PS, percent probability” value is given as “++ (5% ≤ X < 25%)”; the “SD … percent probability” value is recorded as “+ (LOQ ≤ X < 5%)”; the “SE: side effects, percent probability” value was “+ (LOQ ≤ X < 5%)”; the “UN … percent probability” value is listed as “+ (LOQ ≤ X < 5%)”. Also, the “XG: anxiogenic, percent probability” value was “+ (LOQ ≤ X < 5%)”.
`CC1C2NC(c3ccccc32)C1C` (stereo not shown) [Compound 48, 9,10-Dimethyl-11-azatricyclo[6.2.1.0^2,7]undeca-2,4,6-triene hydrochloride]: the minimal effective dose was in the range of 10 to 30 mg/kg; the “AD: antidepressant, percent probability” value is “++ (5% ≤ X < 25%)”; the “AG: analgesic, percent probability” value is given as “+ (LOQ ≤ X < 5%)”; the “AP: antipsychotic, percent probability” value is given as “+ (LOQ ≤ X < 5%)”. Besides, the “AX: anxiolytic, percent probability” value is “++ (5% ≤ X < 25%)”; the “CE: cognitive enhancer, percent probability” value is given as “++++ (50% ≤ X <1 00%)”; the “HA: hallucinogenic, percent probability” value was “++ (5% ≤ X < 25%)”; the “MS: mood stabilizer, percent probability” value is recorded as “+ (LOQ ≤ X < 5%)”. The “PS, percent probability” value is on record as “++ (5% ≤ X < 25%)”; the “SD … percent probability” value is “+ (LOQ ≤ X < 5%)”; the “SE: side effects, percent probability” value is listed as “+ (LOQ ≤ X < 5%)”; the “UN … percent probability” value was “+ (LOQ ≤ X < 5%)”. The “XG: anxiogenic, percent probability” value is “+ (LOQ ≤ X < 5%)”.
Take `CC(C)N1C2CCC1c1c(F)ccc(F)c12` [Compound 34, 3,6-Difluoro-11-(propan-2-yl)-11-azatricyclo[6.2.1.0^2,7]undeca-2,4,6-triene hydrochloride]: the minimal effective dose was above 30 mg/kg; the “AD: antidepressant, percent probability” value is given as “+ (LOQ ≤ X < 5%)”; the “AG: analgesic, percent probability” value is given as “+ (LOQ ≤ X < 5%)”; the “AP: antipsychotic, percent probability” value was “+ (LOQ ≤ X < 5%)”. Besides, the “AX: anxiolytic, percent probability” value was “+ (LOQ ≤ X < 5%)”; the “CE: cognitive enhancer, percent probability” value is on record as “+ (LOQ ≤ X < 5%)”; the “HA: hallucinogenic, percent probability” value is listed as “+ (LOQ ≤ X < 5%)”; the “MS: mood stabilizer, percent probability” value is recorded as “+ (LOQ ≤ X < 5%)”. In addition, the “PS, percent probability” value is “+ (LOQ ≤ X < 5%)”; the “SD … percent probability” value is recorded as “+ (LOQ ≤ X < 5%)”; the “SE: side effects, percent probability” value is “+ (LOQ ≤ X < 5%)”; the “UN … percent probability” value is “+ (LOQ ≤ X < 5%)”. Besides, the “XG: anxiogenic, percent probability” value is listed as “+ (LOQ ≤ X < 5%)”.
Turning to `CC/C=C/CN1C2CCC1c1ccccc12` [Compound 10, 11-[(2E)-Pent-2-en-1-yl]-11-azatricyclo[6.2.1.0^2,7]undeca-2,4,6-triene hydrochloride], the minimal effective dose is above 30 mg/kg; the “AD: antidepressant, percent probability” value is “+ (LOQ ≤ X < 5%)”; the “AG: analgesic, percent probability” value is listed as “+ (LOQ ≤ X < 5%)”; the “AP: antipsychotic, percent probability” value is reported as “+ (LOQ ≤ X < 5%)”. The “AX: anxiolytic, percent probability” value was “++ (5% ≤ X < 25%)”; the “CE: cognitive enhancer, percent probability” value is “+ (LOQ ≤ X < 5%)”; the “HA: hallucinogenic, percent probability” value is “+ (LOQ ≤ X < 5%)”; the “MS: mood stabilizer, percent probability” value was “+ (LOQ ≤ X < 5%)”. The “PS, percent probability” value is “+ (LOQ ≤ X < 5%)”; the “SD … percent probability” value is listed as “+ (LOQ ≤ X < 5%)”; the “SE: side effects, percent probability” value is recorded as “+ (LOQ ≤ X < 5%)”; the “UN … percent probability” value is “+ (LOQ ≤ X < 5%)”. Also, the “XG: anxiogenic, percent probability” value is reported as “+ (LOQ ≤ X < 5%)”.
Take `CC(C)N1C2CCC1c1c(Cl)cccc12` (stereo not shown) [Compound 14, 3-Chloro-11-(propan-2-yl)-11-azatricyclo[6.2.1.0^2,7]undeca-2,4,6-triene hydrochloride]: the minimal effective dose is above 30 mg/kg; the “AD: antidepressant, percent probability” value is given as “+++ (25% ≤ X < 50%)”; the “AG: analgesic, percent probability” value is reported as “++ (5% ≤ X < 25%)”; the “AP: antipsychotic, percent probability” value is recorded as “+ (LOQ ≤ X < 5%)”. Moreover, the “AX: anxiolytic, percent probability” value is given as “++ (5% ≤ X < 25%)”; the “CE: cognitive enhancer, percent probability” value is recorded as “+ (LOQ ≤ X < 5%)”; the “HA: hallucinogenic, percent probability” value is reported as “+ (LOQ ≤ X < 5%)”; the “MS: mood stabilizer, percent probability” value is “+ (LOQ ≤ X < 5%)”. For the same molecule, the “PS, percent probability” value is “++ (5% ≤ X < 25%)”; the “SD … percent probability” value is given as “+ (LOQ ≤ X < 5%)”; the “SE: side effects, percent probability” value is reported as “+ (LOQ ≤ X < 5%)”; the “UN … percent probability” value is “+ (LOQ ≤ X < 5%)”. The “XG: anxiogenic, percent probability” value is listed as “+ (LOQ ≤ X < 5%)”.
